In patent US11021448B2, “1,3-dihydro-1,4-benzodiazepine-2-thiones for the treatment of CNS related diseases” (priority 2016, dated 2021):
Read-outs that look alike come from different tables or passages of the source.

Legend:
hM1 = biological target: T1, hM1 (Homo sapiens, UniProt P11229); assay: FLIPR intracellular calcium assay for modulator activity at the muscarinic M1 receptor in CHO human M1 cells; format: cell-based
T1 construct: expressed in transfected cells; host or cells: CHO
T1 sequence (P11229 1-460): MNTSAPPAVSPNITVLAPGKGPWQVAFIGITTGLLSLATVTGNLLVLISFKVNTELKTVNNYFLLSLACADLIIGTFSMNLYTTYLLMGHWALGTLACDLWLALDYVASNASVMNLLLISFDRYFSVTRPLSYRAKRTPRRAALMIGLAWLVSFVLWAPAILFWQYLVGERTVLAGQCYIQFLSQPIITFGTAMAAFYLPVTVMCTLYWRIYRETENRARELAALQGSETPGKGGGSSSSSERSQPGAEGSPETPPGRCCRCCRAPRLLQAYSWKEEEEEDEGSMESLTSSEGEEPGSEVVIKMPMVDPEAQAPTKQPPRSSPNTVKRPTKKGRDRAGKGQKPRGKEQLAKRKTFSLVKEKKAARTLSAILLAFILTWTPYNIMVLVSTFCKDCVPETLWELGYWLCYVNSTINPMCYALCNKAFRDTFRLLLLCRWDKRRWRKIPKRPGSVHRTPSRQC
Experimental: The assay study the effect of several concentrations of test compounds on basal or acetylcholine-stimulated Ca^2+ levels using FLIPR.
The cell plate and the diluted compounds (1% DMSO final concentration) are placed on the platform of the FLIPR and the door closed. A signal test to check background fluorescence and basal fluorescence signal is performed. Laser intensity is adjusted if necessary. Two minutes preincubation with the diluted test compounds is provide to determine any agonist activity on the M1 receptor by comparison to 30 nM Acetylcholine control. In order to determine any modulator activity the diluted compounds were added to cells and after two minutes preincubation, the EC20 of acetylcholine is added followed by another two minutes preincubation before the measurement of intracellular Ca^2+ with a FLIPR (Molecular Devices).

GABA-A alpha5 (α5β3γ2) = biological target: T2, GABA-A alpha5 (α5β3γ2) (Homo sapiens, UniProt P18507+P31644); assay: GABA A radioligand binding assay, competition for [3H]flumazenil; conditions: [3H]flumazenil 1 nM, HEK293 membranes
T2 construct: expressed in transfected cells; host or cells: HEK293 (transient transfection; membranes)
Experimental: The ability of compounds present invention to bind to GABA A receptor subtypes was determined by competition for [^3H]flumazenil (85 Ci/mmol; Roche) binding to HEK293 cells expressing human (transiently transfected) receptors of composition α1β2γ2, and α5β3γ2.
Membrane preparation Cell pellets were suspended in Krebs-tris buffer (5 mM KCl, 1.25 mM CaCl2), 1.25 mM MgCl2, 120 mM NaCl, 15 mM Tris; pH 7.5; binding assay buffer), homogenized by polytron for ca. 20 sec on ice and centrifuged for 60 min at 4° C. (50000 g; Sorvall, rotor: SM24=20000 rpm). The cell pellets were resuspended in Krebs-tris buffer and homogenized by polytron for ca. 15 sec on ice. Protein was measured (Bradford method, Bio-Rad) and aliquots of 1 mL were prepared and stored at −80° C.
Radioligand binding assays were carried out in a volume of 200 uL (96-well plates) which contained 100 μL of cell membranes, [3H]flumazenil at a concentration of 1 nM for a1, a2, a3 subunits and 1 nM for a5 subunits and the test compound in the range of 3.16 μM to 0.1 μM. Nonspecific binding was defined by 10^−5 M diazepam and typically represented less than 5% of the total binding. […] After drying, filter-retained radioactivity was detected by liquid scintillation counting.
Ki values were calculated using Excel-Fit (Microsoft) and are the means of two determinations.

GABA A = assay: Oocyte EP; format: cell-based; conditions: at 1 μM

SMILES: CC(C)[C@@H]1N=C(c2ccccc2F)c2cc(Cl)ccc2NC1=S [Example 5, (3S)-7-chloro-5-(2-fluorophenyl)-3-propan-2-yl-1,3-dihydro-1,4-benzodiazepine-2-thione]
- IC50 (hM1): 80 nM
- Ki (GABA-A alpha5 (α5β3γ2); GABA-A alpha 5 (second value, Ki implied), second value): > 36000 nM
- Ki (GABA-A alpha5 (α5β3γ2); GABA-A alpha5: Ki): > 24000 nM
- Oocyte EP effect (GABA A): no effect

SMILES: CC(=O)OC1C=C(c2ccccc2F)c2cc(Cl)ccc2NC1=S (centres unmarked) [Example 14, [7-chloro-5-(2-fluorophenyl)-2-thioxo-1,3-dihydro-1-benzazepin-3-yl]acetate]
- IC50 (hM1; CHO human M1, with EC20 of acetylcholine, FLIPR, read-out: IC50 value hM1 (converted)): 649 nM
- melting point: 214 to 215 °C

SMILES: S=C1Nc2ccc(Cl)cc2C(c2ccccc2Cl)=NC1Cc1ccccc1 (centres unmarked) [Example X1, 3-Benzyl-7-chloro-5-(2-chloro-phenyl)-1,3-dihydro-benzo[1,4]diazepine-2-thione]
- activity at M1 receptor (hM1): no activity

SMILES: S=C1Nc2ccc(Cl)cc2C(c2ccccc2Cl)=NC1CC1CC1 (centres unmarked) [Example X2, 7-chloro-5-(2-chlorophenyl)-3-(cyclopropylmethyl)-1H-benzo[e][1,4]diazepine-2(3H)-thione]
- activity at M1 receptor (hM1): no activity
